What all share (type): cell-based, human
The test system of one test is calpain. In words: t-BOC calpain activity assay in intact HAECs. To be noted: HAECs; DL-Hcy 500 μmol/L and/or D-Glu 25 mmol/L for 48 hrs. The protocol:
(FIG. 5A). In situ .O2^− production in aorta. (FIG. 5B). Nitrotyrosine (3-NT) levels. Aortic paraffin-cross sections (7 μm) from Cbs^−/+ mice were stained with 3-NT antibody and 3,3′-diaminobenzidine (DAB, brown). (FIG. 5C). Urinary 8-isoprostane levels. At the age of 8-week, Cbs^+/+ and Cbs^−/+ mice were fed with a high methionine diet (HM, methionine: 2% w/w) for 8 weeks, and/or injected with streptozotocin (STZ, i.p., 40 mg/kg) for 5 consecutive days starting from the first day of experiment. Mice fed with a control diet (CT, methionine: 0.37% w/w) and injected with vehicle (50 mM citrate buffer) served as controls. Aortic cryo-cross sections (30 μm) from Cbs^−/+ mice were stained with the superoxide marker dihydroethidium (DHE, 3 μmol/L, 30 mins.). Urine was collected from 24 hrs metabolic cage. (FIG. 5D). Endothelium-dependent vascular relaxation in HHcy/HG CBS^−/+ mouse aorta in the presence of antioxidants. Arterial rings were pre-contracted with phenylephrine (1 μmol/L) and examined for relaxation to cumulative additions of ACh in the aorta of STZ-treated Cbs^−/+ mice on HM diet. The arterial rings were preincubated with antioxidants polyethylene glycol superoxide dismutase (PEG-SOD, 150 U/mL, Sigma #S9549), Tempol (1 mmol/L, Sigma #176141), or apocynin (10 μmol/L, Sigma #W508454) for 1 hr. n=3-5. *p<0.05 vs vehicle-treated Cbs^−/+ mice on CT diet; †p<0.05 vs vehicle-treated Cbs^−/+ mice on HM diet; ‡p<0.05 vs STZ-treated Cbs^−/+ mice on CT diet; #p<0.05 vs STZ-treated Cbs^−/+ mice on HM diet. (FIG. 5E). […] Calpain activity was measured by the fluorescent substrate t-BOC-Leu-Met-CMAC (T-BOC, 10 μmol/L, 30 min) Human aortic endothelial cells (HAECs, passage 8-9) were cultured in EC medium which contains 5 mmol/L D-glucose (D-Glu), treated with DL-homocysteine (DL-Hcy, 500 μmol/L) and/or D-Glu (25 mmol/L) with or without […] (150 U/mL) or MDL28170 (MDL, 20 μmol/L) for 48 hrs, or CTsiRNA and μ-calpsiRNA for 72 hrs. […] Transfection effect of μ-calpsiRNA in HAECs was detected by Western blot after transfected with the siRNA for indicated time. […]

A further test concerns eNOS-pThr495. As to the kind of experiment: eNOS-pThr495 protein levels in HAECs. The note with it: for eNOS-pThr497/495 levels increase: HAECs, DL-Hcy 500 μmol/L or D-Glu 25 mmol/L. The protocol: (FIG. 7A). eNOS protein levels in mouse aorta of Cbs^−/+ mice (Left Panel) and HAECs (Right Panel). (FIG. 7B). eNOS-pThr497/495 protein levels in mouse aorta of Cbs^−/+ mice (Left Panel) and in HAECs (Right Panel). At the age of 8-week, Cbs^−/+ mice were fed with a high methionine diet (HM, methionine: 2% w/w) for 8 weeks, and/or injected with streptozotocin (STZ, i.p., 40 mg/kg) for 5 consecutive days starting from the first day of experiment. Mice fed with a control diet (CT, methionine: 0.37% w/w) and injected with vehicle (50 mmol/L citrate buffer) served as controls. Human aortic endothelial cells (HAECs, passage 8-9) were cultured in EC medium which contains 5 mmol/L D-glucose (D-Glu), treated with DL-homocysteine (DL-Hcy, 500 μmol/L) and/or D-Glu (25 mmol/L). (FIG. 7C). eNOS-pThr495 protein levels in HAECs. HAECs (passage 8-9) were cultured in EC medium which contains 5 mmol/L D-glucose (D-Glu), treated with DL-homocysteine (DL-Hcy, 500 μmol/L) and D-Glu (25 mmol/L for 48 hrs with or without non-specific PKC inhibitor GF109203X (GFX) (2 μmol/L, 30 min.); control adenoviruse (Ad-CT, 200 MOI, 72 hrs), dominant negative PKCβ2 adenovirus (Adv-dnPKCβ2, 200 MOI, 72 hrs); μ-calpain siRNA (μ-calpsiRNA, Santa Cruz #sc-29885, 72 hrs), or MDL ([…], 48 hrs, Sigma #M6690). (FIG. 7D). Transfection effect of Adv-dnPKCβ2in HAECs. Cultured HAECs (passage 8, 80% confluence) were treated with 12.5, 25, 50, 100 and 200 MOI Adv-dnPKCβ2 for 48 hrs. n=3, *p<0.05 vs control; †p<0.05 vs DL-Hcy-treated HAECs; ‡p<0.05 vs D-Glu-treated HAECs; #p<0.05 vs DL-Hcy/D-Glu-treated HAECs. Cbs, cystathionine β-synthase; eNOS, endothelial nitric oxide synthase; eNOS-pThr495/497, phosphorylation of eNOS at threonine 497 (mouse)/495 (human).
Human aortic endothelial cells (HAECs) were cultured in cell culture medium (M199, HyClone) as previously described (Wang et al., 1997, J Biol Chem 272:25380-25385). The HAECs were treated with DL-Hcy (200 or 500 μmol/L) and/or D-glucose (D-Glu, 25 mmol/L) for 24 or 48 hrs in the presence or absence of selected pharmacological inhibitors or siRNA or adenovirus.

In a further test the test system is eNOS. As to the kind of experiment: eNOS protein levels in HAECs. The procedure: (FIG. 7A). eNOS protein levels in mouse aorta of Cbs^−/+ mice (Left Panel) and HAECs (Right Panel). (FIG. 7B). eNOS-pThr497/495 protein levels in mouse aorta of Cbs^−/+ mice (Left Panel) and in HAECs (Right Panel). At the age of 8-week, Cbs^−/+ mice were fed with a high methionine diet (HM, methionine: 2% w/w) for 8 weeks, and/or injected with streptozotocin (STZ, i.p., 40 mg/kg) for 5 consecutive days starting from the first day of experiment. Mice fed with a control diet (CT, methionine: 0.37% w/w) and injected with vehicle (50 mmol/L citrate buffer) served as controls. Human aortic endothelial cells (HAECs, passage 8-9) were cultured in EC medium which contains 5 mmol/L D-glucose (D-Glu), treated with DL-homocysteine (DL-Hcy, 500 μmol/L) and/or D-Glu (25 mmol/L). (FIG. 7C). eNOS-pThr495 protein levels in HAECs. […]

Here are results for 3 compounds from patent US20160089391A1, “Molecular Targets for Cardiovascular Disease” (Temple University-of the Commonwealth System of Higher …, priority 2014, published 2016).

For `O=C[C@H](O)[C@@H](O)[C@H](O)[C@H](O)CO` [D-Glu, D-glucose], the calpain activity increase with calpain was determined as 2.3 fold. Besides, in the test on eNOS-pThr495, the eNOS-pThr497/495 levels increase is on record as 1.5 fold. Also, the “effect on eNOS protein levels” value in the test on eNOS (D-Glu 25 mmol/L, in the presence or absence of DL-Hcy) is “no effect”.

MDL28170: in the test on eNOS-pThr495 (HAECs with DL-Hcy 500 μmol/L and D-Glu 25 mmol/L 48 hrs, GFX 2 μmol/L 30 min, MDL 20 mmol/L 48 hrs, Adv-dnPKCβ2 200 MOI 72 hrs, siRNA 72 hrs), the “HHcy/HG-induced eNOS-pThr495” value is “completely rescued”.

In the case of `NC(CCS)C(=O)O` (racemic) [DL-Hcy, DL-homocysteine], the calpain activity increase in the test with calpain came out at 1.8 fold. Moreover, the eNOS-pThr497/495 levels increase in the test with eNOS-pThr495 came out at 1.6 fold. The “decrease of eNOS protein levels” value with eNOS (DL-Hcy 500 μmol/L, 48 hrs) stood at 59%.
